Tests used:
[1] = system: healthy donor PBMCs; test: Cell viability of healthy donor PBMCs on antagonist treatment (data not shown); format: cell-based, human
Protocol: Supplementary methods and results
Annexin V viability analysis
Cells were washed with Annexin V binding buffer (BioLegend) then incubated with Alexa Fluor 647 – conjugated Annexin V (BioLegend) at room temperature for 15 minutes. For A2AAR and A2BAR expression profiling, cells were washed with BD Perm/Wash then incubated with BD CytoFix/CytoPerm at 4°C for 20 minutes. The cells were then washed and stained with PE-conjugated A2AAR mouse antibody (Clone 7F6-G5-A2; Santa Cruz Biotechnology, sc-32261 PE) at room temperature for 30 minutes. After washing twice to remove most A2AAR antibody possible, goat A2BAR primary antibody (Clone PA5-18422; Thermo Fisher Scientific) was incubated at 4°C overnight. The cells were subsequently washed and stained with Alexa Fluor 488-conjugated anti-goat secondary antibody (Thermo Fisher Scientific) at room temperature for 1 hour. The cells were then washed with FC buffer twice before acquiring on NovoCyte. A2AAR and A2BAR fluorescence minus one (FMO) staining were also prepared. For differential expression of ADO ectonucleotidases, day five patient-derived sarcoma spheroids were digested and stained for CD45, CD73 and CD39 using the same procedures as cell surface staining (Supplementary Table 1).
Public database bioinformatic analysis […]

[2] = system: healthy donor T cells (PBMCs) and NK cells; test: CFSE proliferation assay with exogenous adenosine; format: cell-based, human; conditions: higher concentration further restoring proliferation, data not shown
[3] = biological target: T1, human A2AAR (Homo sapiens, UniProt P29274); test: Radioligand binding, human A2AAR ([3H]ZM241385, transfected HeLa cells); conditions: displacement of [3H]ZM241385, human HeLa cells, n=3, racemic mixtures; read-out: Ki hA2A
T1 construct: expressed in transfected cells; host or cells: HeLa
T1 sequence (P29274 whole entry): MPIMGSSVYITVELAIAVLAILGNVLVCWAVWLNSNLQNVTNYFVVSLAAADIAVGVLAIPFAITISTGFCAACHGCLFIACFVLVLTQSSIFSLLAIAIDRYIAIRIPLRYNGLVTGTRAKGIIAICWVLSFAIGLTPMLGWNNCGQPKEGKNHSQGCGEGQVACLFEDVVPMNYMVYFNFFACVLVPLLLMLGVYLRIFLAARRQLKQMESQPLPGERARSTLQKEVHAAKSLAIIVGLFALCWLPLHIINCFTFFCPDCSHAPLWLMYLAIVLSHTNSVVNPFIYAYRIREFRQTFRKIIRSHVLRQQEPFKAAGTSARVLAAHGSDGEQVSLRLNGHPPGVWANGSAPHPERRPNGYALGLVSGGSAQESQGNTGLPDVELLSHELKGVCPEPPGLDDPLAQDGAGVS
Protocol: The affinity and selectivity profiles of the ligands obtained was studied in vitro, radioligand binding assays, at the four human specific ARs subtypes, using experimental protocols previously described.[28–30] All ligands were prepared and tested as racemic mixtures. […] Non-specific binding was determined in the presence of R-PIA 10 µM for A1AR, NECA 50 µM for A2AAR, NECA 400 μΜ for A2BAR and R-PIA 100 μΜ for A3AR.

[4] = system: healthy donor T cells in MPNST patient-derived sarcoma spheroid; test: Proliferation assay with CD73-expressing patient-derived sarcoma (MPNST) spheroid; format: cell-based, human; conditions: antagonist 12 µM, 3 days, endogenous adenosine, n=5 healthy donors
Protocol: A malignant peripheral nerve sheath tumor (MPNST) patient-derived sarcoma cell line was used to grow spheroid by seeding 1×10^4 cells per well in a 96-well ultra-low attachment plate (Thermo Fisher Scientific) with DMEM-F12 media containing 20% FBS and 1% PS for 5 days. 1×10^5 CSFE-labeled healthy PBMCs, ratio of 10:1, were added to the CD73 expressing, adenosine-producing spheroid at day five. Similar to the proliferation assay with exogenous ADO, CD3/CD28 beads at 1:4 ratio and IL-2 at 100 IU/mL were added. A2BAR antagonism treatment at 12 μM was added at the same day.
Figure 5 Rescue of lymphocyte proliferation in sarcoma spheroids by A2BAR antagonism. Relative proliferation of: (A) CD45RA- CD4 T cells, (B) CD45RA+CD4 T cells, (C) CD45RA- CD8 T cells and (D) CD45RA+ CD8 T cells after antagonist 12 µM treatment for 3 days in MPNST patient-derived sarcoma spheroid. (n=5 healthy donors) Box plots with minimum, first quartile, median, third quartile, and maximum are presented. Unpaired and non-parametric statistical analysis—Mann-Whitney test was performed against untreated control with *p<0.05, **p<0.01, ***p<0.001, and ****p<0.0001. (E) Representative CSFE dilution of CD45RA+ CD8 T cells. CD45RA expression differentiates naïve and effector T cells from central and effector memory T cells. MPNST, malignant peripheral nerve sheath tumors; UPS, undifferentiated pleomorphic sarcoma.

SMILES	Toxicity / cell viability [1]	Dose dependence of the proliferation rescue on T and NK cells [2]	Ki [3]	Rescue of naïve and effector (CD45RA+) CD8 T cell proliferation in adenosine-producing sarcoma spheroids [4]
CC1=C(C(=O)OC(C)C)C(c2ccco2)n2c(nc3ccccc32)N1 (stereo not shown) [ISAM-140, isopropyl 4-(furan-2-yl)−2-methyl-1,4-dihydrobenzo[4 5] imidazo[1,2 a]pyrimidine-3-carboxylate]	non-toxic and even improved cell viability	dose-dependent	–	–
CC1=C(C(=O)OC(C)C)C(c2ccco2)n2c(nc3ccccc32)N1Cc1ccccc1F (stereo not shown) [ISAM-R56A]	–	–	> 1 µM	significantly rescued
